Experimental data reported in patent US20050239656A1, “Pyridine compounds or salts thereof and herbicides containing the same” (priority 2002, published 2005).

How the values were obtained:
japanese ribbon wapato = test: Test Example 3: paddy pot test, application under submerged conditions; assay type: in vivo, Sagittaria pygniaea; conditions: submerged application at primary leaf stage, visually observed 14 days after application, 0 = non-treated, 100 = complete kill
Method in brief: (§1)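 Paddy soil pots; seeds sown, lightly covered; flooded 0.5–1 cm in greenhouse; wapato tubers planted day 1–2; flood raised to 3–4 cm. Submerged pipette application at 0.5 leaf / primary leaf stage. Visual score day 14, 0–100%.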

crabgrass [1] = test: Test Example 2: soil surface treatment, upland pot test; assay type: in vivo, Digitaria sanguinalis L.; conditions: active ingredient 500 g/ha, observed 20th to 28th day
Method in brief: (§2)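 Pots (1/170,000 ha) filled with upland field soil were seeded, then treated on the following day by spraying the soil surface with diluted formulation (1,500 L/ha) at a fixed a.i. dose. Control was rated visually on a 0–100% scale at 20–28 days.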

redroot pigweed [2] = test: as above; assay type: in vivo, Amaranthus retroflexus L.; conditions: active ingredient 500 g/ha, observed 20th to 28th day
Method in brief: as §2

corn [3] = test: as above; assay type: in vivo, Zea mays L.; conditions: active ingredient 500 g/ha, observed 20th to 28th day
Method in brief: as §2

prickly sida [4] = test: as above; assay type: in vivo, Sida spinosa L.; conditions: active ingredient 500 g/ha, observed 20th to 28th day
Method in brief: as §2

barnyardgrass [5] = test: Test Example 1: foliage treatment, upland pot test; assay type: in vivo, Echinochloa crus-galli L.; conditions: active ingredient 500 g/ha, observed 18th to 23rd day, 0 = non-treated, 100 = complete kill
From the text: (§3) Upland field soil was put into a 1/170,000 ha pot, and seed of various plants were sown. Then, when the plants reached predetermined leaf stages ((1) barnyardgrass: 1.3 to 2.8 leaf stages, (2) crabgrass: 1.0 to 2.8 leaf stages, (3) green foxtail: 1.3 to 2.6 leaf stages, (4) redroot pigweed: 0.1 to 1.2 leaf stages, (5) prickly sida: 0.1 to 1.2 leaf stages, (6) velvetleaf: 0.1 to 1.2 leaf stages, (7) tall morningglory: 0.1 to 1.5 leaf stages, (8) rice: 1.2 to 2.6 leaf stages, (9) wheat: 1.3 to 2.4 leaf stages, (10) corn, 2.1 to 3.2 leaf stages, (11) soybean: 0.1 to 0.4 leaf stage), a wettable powder or emulsifiable concentrate having the compound of the present invention formulated in accordance with a usual formulation method, was weighed so that the active ingredient would be a predetermined amount, and diluted with water in an amount of 500 L/ha. To the diluted solution, 0.1% (v/v) of agricultural spreader was added. The herbicide thus adjusted was applied by a small size sprayer for foliage treatment. On the 18th to 23rd days after the application of the herbicide, the growth of the respective plants was visually observed, and the herbicidal effects were evaluated by the growth controlling degrees (%) ranging from 0 (equivalent to the non-treated plot) to 100 (complete kill), whereby the results shown in Table 3, were obtained.

barnyardgrass [6] = test: Test Example 2: soil surface treatment, upland pot test; assay type: in vivo, Echinochloa crus-galli L.; conditions: active ingredient 500 g/ha, observed 20th to 28th day
Method in brief: as §2

corn [7] = test: Test Example 1: foliage treatment, upland pot test; assay type: in vivo, Zea mays L.; conditions: crop, active ingredient 500 g/ha, observed 18th to 23rd day, 0 = non-treated, 100 = complete kill
From the text: as §3

soybean [8] = test: Test Example 2: soil surface treatment, upland pot test; assay type: in vivo, Glycine max Merr.; conditions: active ingredient 500 g/ha, observed 20th to 28th day
Method in brief: as §2

rice [9] = test: Test Example 1: foliage treatment, upland pot test; assay type: in vivo, Oryza sativa L.; conditions: crop, active ingredient 500 g/ha, observed 18th to 23rd day, 0 = non-treated, 100 = complete kill
From the text: as §3

soybean [10] = test: Test Example 1: foliage treatment, upland pot test; assay type: in vivo, Glycine max Merr.; conditions: crop, active ingredient 500 g/ha, observed 18th to 23rd day, 0 = non-treated, 100 = complete kill
From the text: as §3

green foxtail [11] = test: Test Example 2: soil surface treatment, upland pot test; assay type: in vivo, Setaria viridis L.; conditions: active ingredient 500 g/ha, observed 20th to 28th day
Method in brief: as §2

redroot pigweed [12] = test: Test Example 1: foliage treatment, upland pot test; assay type: in vivo, Amaranthus retroflexus L.; conditions: active ingredient 500 g/ha, observed 18th to 23rd day, 0 = non-treated, 100 = complete kill
From the text: as §3

green foxtail [13] = test: Test Example 1: foliage treatment, upland pot test; assay type: in vivo, Setaria viridis L.; conditions: active ingredient 500 g/ha, observed 18th to 23rd day, 0 = non-treated, 100 = complete kill
From the text: as §3

barnyardgrass [14] = test: Test Example 3: paddy pot test, application under submerged conditions; assay type: in vivo, Echinochloa crus-galli L.; conditions: submerged application at 0.5 leaf stage, visually observed 14 days after application, 0 = non-treated, 100 = complete kill
Method in brief: as §1

rice (var. Nihonbare) = test: Test Example 3: paddy pot test, transplanted rice; assay type: in vivo, Oryza sativa L.; conditions: applied 4th day after transplantation, visually observed 21st day after application, 0 = non-treated, 100 = complete kill
Method in brief: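 Visual crop-injury rating (0 = as untreated, 100 = complete kill, %) taken 21 days post-application. Treatment: formulated compound, water-diluted, pipetted into 3–4 cm flood water at a preset active-ingredient dose, 4 days after transplanting 2-leaf Nihonbare rice 3 cm deep in puddled paddy soil.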

prickly sida [15] = test: Test Example 1: foliage treatment, upland pot test; assay type: in vivo, Sida spinosa L.; conditions: active ingredient 500 g/ha, observed 18th to 23rd day, 0 = non-treated, 100 = complete kill
From the text: as §3

crabgrass [16] = test: Test Example 1: foliage treatment, upland pot test; assay type: in vivo, Digitaria sanguinalis L.; conditions: active ingredient 500 g/ha, observed 18th to 23rd day, 0 = non-treated, 100 = complete kill
From the text: as §3

velvetleaf [17] = test: Test Example 2: soil surface treatment, upland pot test; assay type: in vivo, Abutilon theophrasti MEDIC.; conditions: active ingredient 500 g/ha, observed 20th to 28th day
Method in brief: as §2

velvetleaf [18] = test: Test Example 1: foliage treatment, upland pot test; assay type: in vivo, Abutilon theophrasti MEDIC.; conditions: active ingredient 500 g/ha, observed 18th to 23rd day, 0 = non-treated, 100 = complete kill
From the text: as §3

japanese bulrush = test: Test Example 3: paddy pot test, application under submerged conditions; assay type: in vivo, Scirpus juncoides; conditions: submerged application at 0.5 leaf stage, visually observed 14 days after application, 0 = non-treated, 100 = complete kill
Method in brief: as §1

rice [19] = test: Test Example 2: soil surface treatment, upland pot test; assay type: in vivo, Oryza sativa L.; conditions: active ingredient 500 g/ha, observed 20th to 28th day
Method in brief: as §2

Row | SMILES | Growth controlling degree (%) Japanese ribbon wapato (japanese ribbon wapato; active ingredient 250 g/ha) [%] | Growth controlling degree (%) Crabgrass (crabgrass [1]) [%] | Growth controlling degree (%) Redroot pigweed (redroot pigweed [2]) [%] | Growth controlling degree (%) Corn (corn [3]) [%] | Growth controlling degree (%) Prickly sida (prickly sida [4]) [%] | Growth controlling degree (%) Barnyardgrass (barnyardgrass [5]) [%] | Growth controlling degree (%) Barnyardgrass (barnyardgrass [6]) [%] | Growth controlling degree (%) Corn (corn [7]) [%] | Growth controlling degree (%) Soyabean (soybean [8]) [%] | Growth controlling degree (%) Rice (rice [9]) [%] | Growth controlling degree (%) Soybean (soybean [10]) [%] | Growth controlling degree (%) Green foxtail (green foxtail [11]) [%] | Growth controlling degree (%) Redroot pigweed (redroot pigweed [12]) [%] | Growth controlling degree (%) Green foxtail (green foxtail [13]) [%] | Growth controlling degree (%) Barnyardgrass (barnyardgrass [14]; active ingredient 250 g/ha) [%] | Growth controlling degree (%) Rice (rice (var. Nihonbare); active ingredient 250 g/ha) [%] | Growth controlling degree (%) Prickly sida (prickly sida [15]) [%] | Growth controlling degree (%) Crabgrass (crabgrass [16]) [%] | Growth controlling degree (%) Velvetleaf (velvetleaf [18]) [%] | Growth controlling degree (%) Japanese bulrush (japanese bulrush; active ingredient 250 g/ha) [%] | also measured
1 | CC(C)C(c1cnccc1C(F)(F)F)N(C)C(=O)Cc1ccc(Cl)c(Cl)c1 (stereo not drawn) [I-28] | 10 | 80 | 70 | 0 | 30 | 10 | 70 | 0 | 0 | 0 | 60 | 70 | 80 | 60 | 100 | 0 | 70 | 80 | 90 | 70 | Growth controlling degree (%) Velvetleaf (velvetleaf [17]): 50%
2 | CC(C)C(c1cnccc1C(F)(F)F)N(C)C(=O)Cc1ccc(C(F)(F)F)cc1 (stereo not drawn) [I-31] | – | 90 | 80 | 30 | 100 | 95 | 100 | 70 | 50 | 40 | 90 | 100 | 80 | 80 | 100 | 20 | 80 | 85 | 95 | 95 | Growth controlling degree (%) Rice (rice [19]): 10%; Growth controlling degree (%) Velvetleaf (velvetleaf [17]): 50%
3 | CC(C)C(c1cnccc1C(F)(F)F)N(C)C(=O)Cc1ccccc1[N+](=O)[O-] (stereo not drawn) [I-39] | 85 | 100 | 80 | 40 | 90 | 50 | 100 | 10 | 50 | 10 | 40 | 70 | 80 | 60 | 100 | 10 | 90 | 70 | – | 95 | Growth controlling degree (%) Rice (rice [19]): 10%; Growth controlling degree (%) Velvetleaf (velvetleaf [17]): 30%
4 | CCOC(=O)N(C)C(c1cnccc1C(F)(F)F)c1cccc2ccccc12 (stereo not drawn) [I-54] | – | – | – | – | – | 50 | – | 50 | – | 30 | 50 | – | 80 | 50 | – | – | 90 | 95 | 95 | – | Growth controlling degree (%) Japanese ribbon wapato (japanese ribbon wapato; active ingredient 500 g/ha): 0%; Growth controlling degree (%) Barnyardgrass (barnyardgrass [14]; active ingredient 500 g/ha): 100%; Growth controlling degree (%) Rice (rice (var. Nihonbare); active ingredient 500 g/ha): 20%; Growth controlling degree (%) Japanese bulrush (japanese bulrush; active ingredient 500 g/ha): 70%
5 | CC(Oc1ccccc1)C(=O)N(C)C(c1cnccc1C(F)(F)F)C(C)C (stereo not drawn) [I-119, N-methyl-N-[2-methyl-1-(4-trifluoromethylpyridin-3-yl)propyl]2-phenoxypropionamide] | – | – | – | – | – | 60 | – | 10 | – | 20 | 60 | – | 50 | 50 | – | – | 70 | 40 | 10 | – | Growth controlling degree (%) Barnyardgrass (barnyardgrass [14]; active ingredient 500 g/ha): 98%; Growth controlling degree (%) Rice (rice (var. Nihonbare); active ingredient 500 g/ha): 20%; Growth controlling degree (%) Japanese bulrush (japanese bulrush; active ingredient 500 g/ha): 100%
6 | CC(C)C(c1cnccc1C(F)(F)F)N(C)C(=O)Cc1ccc(C#N)cc1 (racemic) [I-114] | 95 | – | – | – | – | 80 | – | 60 | – | 30 | 70 | – | 60 | 70 | 100 | 30 | 80 | 80 | 70 | 95 | –
7 | CC(C)C(c1cnccc1Cl)N(C)C(=O)Cc1cccc(C(F)(F)F)c1 (stereo not drawn) [I-68] | – | – | – | – | – | 0 | – | 0 | – | 0 | 10 | – | 70 | 10 | – | – | 70 | 60 | 80 | – | Growth controlling degree (%) Japanese ribbon wapato (japanese ribbon wapato; active ingredient 125 g/ha): 50%; Growth controlling degree (%) Barnyardgrass (barnyardgrass [14]; active ingredient 125 g/ha): 95%; Growth controlling degree (%) Rice (rice (var. Nihonbare); active ingredient 125 g/ha): 10%; Growth controlling degree (%) Japanese bulrush (japanese bulrush; active ingredient 125 g/ha): 70%
